Test results taken from patent publication US20230172204A1 (BASF SE, priority 2020, published 2023).

Legend:
[1] = system: Phakopsora pachyrhizi (F129L); test: Protective control of soybean rust on soybeans (PHAKPA P6); format: in vivo; details: for % PHAKPA (F129L) Disease level P6 at 4 ppm: protective P6, 4 ppm; for % PHAKPA (F129L) Disease level P6 at 4 ppm / % PHAKPA (F129L) Disease level P6 at 16 ppm: soybean rust F129L; for % PHAKPA (F129L) Disease level P6 at 16 ppm: protective P6, 16 ppm
[2] = system: Phakopsora pachyrhizi (F129L); test: Protective control of soybean rust on soybeans (PHAKPA P2); format: in vivo; details: for % PHAKPA (F129L) Disease level P2 at 4 ppm: protective P2, 4 ppm; for % PHAKPA (F129L) Disease level P2 at 4 ppm / % PHAKPA (F129L) Disease level P2 at 16 ppm: soybean rust F129L; for % PHAKPA (F129L) Disease level P2 at 16 ppm: protective P2, 16 ppm
[3] = P6 protective, % diseased leaf area
[4] = P2 protective, % diseased leaf area

| SMILES | % PHAKPA (F129L) Disease level P6 at 4 ppm [1] | % PHAKPA (F129L) Disease level P6 at 16 ppm [1] | % PHAKPA (F129L) Disease level P2 at 4 ppm [2] | % PHAKPA (F129L) Disease level P2 at 16 ppm [2] | PHAKPA (F129L) Disease level (%) P6 at 4 ppm ([1]; P6 protective, 4 ppm, % diseased leaf area) | PHAKPA (F129L) Disease level (%) P2 at 4 ppm ([2]; P2 protective, 4 ppm, % diseased leaf area) | PHAKPA (F129L) Disease level (%) P6 at 16 ppm [1, 3] | PHAKPA (F129L) Disease level (%) P2 at 16 ppm [2, 4] |
| --- | --- | --- | --- | --- | --- | --- | --- | --- |
| CNC(=O)/C(=N/OC)c1cccc(C)c1CO/N=C(\C)c1ccc(OC)cc1 [compound 164] | 27% | 0% | 5% | 0% | – | – | – | – |
| CNC(=O)/C(=N/OC)c1cccc(C)c1CO/N=C(\C)c1cc(C(F)(F)F)cc(F)c1NC [compound 238] | 100% | 77% | 100% | 53% | – | – | – | – |
| C#Cc1cc(/C(C)=N/OCc2c(C)cccc2/C(=N\OC)C(=O)OC)cc(C(F)(F)F)c1 [compound 143] | 15% | 0% | 4% | 0% | – | – | – | – |
| CO/N=C(/C(=O)OC)c1cccc(C)c1CO/N=C(\C)c1cc(Cl)ccc1Cl [compound 117] | 88% | 12% | 85% | 10% | – | – | – | – |
| CO/N=C(/C(=O)OC)c1cccc(C)c1CO/N=C(\C)c1cccc(Cl)c1C(F)(F)F [compound 421] | 87% | 57% | 100% | 33% | – | – | – | – |
| CO/C=C(/C(=O)OC)c1ccccc1CO/N=C(\C)c1cccc(C(F)(F)F)c1 [reference compound] | – | – | – | – | 30% | 6% | – | – |
| CO/N=C(/C(=O)OC)c1ccccc1CO/N=C(\C)c1ccccc1F [reference compound] | – | – | – | – | – | – | 77% | 83% |
| CO/N=C(/C(=O)OC)c1cccc(C)c1CO/N=C(\C)c1ccccc1C [compound 115] | 92% | 75% | 83% | 63% | – | – | – | – |
| CNC(=O)/C(=N/OC)c1cccc(C)c1CO/N=C(\C)c1ccccc1C1(C)CC1 [compound 296] | 100% | 83% | 100% | 40% | – | – | – | – |
| CO/N=C(/C(=O)OC)c1cccc(C)c1CO/N=C(\C)c1ccc(OC)cc1 [Ex. 216] | 80% | 29% | 77% | 13% | – | – | 15% | 20% |
| CCC/C(=N\OCc1c(C)cccc1/C(=N\OC)C(=O)OC)c1ccccc1 [compound 387] | 80% | 47% | 60% | 30% | – | – | – | – |
| C#Cc1ccccc1/C(C)=N/OCc1c(C)cccc1/C(=N\OC)C(=O)OC [compound 122] | 93% | 90% | 100% | 73% | – | – | – | – |
